# System: P388 lymphocytic leukemia
# Assay: Activity against the P388 lymphocytic leukemia
# Format: cell-based
# Details: same level as routinely obtained with the natural product
substance,measurement,value
dolastatin 10 [Synthetic dolastatin 10],"ED50, activity against the P388 lymphocytic leukemia",10^-4 μg/mL
